Data on 18 compounds can be found in paper PMC8512853, “Synthesis, Bioactivity, Pharmacokinetic and Biomimetic Properties of Multi-Substituted Coumarin Derivatives” (Molecules, 2021).

Data set [1] can be described thus: ABTS radical scavenging assay. The conditions noted are these: 6 min. As for the experimental part:
The ABTS radical cation scavenging assay is a decolorization assay frequently used as an antioxidant activity estimation protocol. […] The absorbance is measured at 734 nm and the antioxidant capacity is compared to a standard antioxidant solution, such as ascorbic acid.
For the evaluation of antioxidant activity, the scavenging capacities of all samples were measured via the ABTS assay, as previously described by Kontogiorgis et al. with some modifications. Briefly, an ethanolic standard ABTS solution (7 mM) was prepared by the addition of ABTS salt and potassium persulfate. […] Each sample was diluted in DMSO and tested in triplicate. The tested mixture contained 10–20 µL of sample and 990–980 µL of the ABTS solution, for a total volume of 1 ml. Blank samples contained equal amounts of DMSO instead of the coumarin analogues, and ascorbic acid was used as a reference sample for the final evaluation of the ABTS scavenging capacity. All mixtures were stored at room temperature to allow decolorization and measured after 6 min. The percentage reduction of the ABTS radical was evaluated according to the following Equation (3):(3) % Reduction=Control OD (mean)−Sample OD (mean)/Control OD (mean)×100

Data set [2] in a line: MTT cell viability assay, HaCaT. The format is cell-based, human. The conditions noted are these: human, HaCaT cells, 100 μΜ, 24 h. From the text: The MTT assay (3- [4,5-dimethylthiazol-2-yl] -2,5 diphenyl tetrazole) is based on the conversion of MTT to formazan crystals by living cells, which determines mitochondrial activity. Since for most cell populations total mitochondrial activity is related to the number of viable cells, this assay is widely used to measure the in vitro cytotoxic effects of drugs on various cell lines or primary cells. The principle of the MTT assay is that for most viable cells the mitochondrial activity is stable, and therefore, an increase or decrease in the number of viable cells is linearly related to mitochondrial activity. The mitochondrial activity of the cells is reflected by the conversion of the MTT tetrazole salt to formazan crystals (bright purple), which can be solubilized (in this protocol with DMSO) for homogeneous measurement. Thus, any increase or decrease in the number of viable cells can be detected by measuring the formazan concentration reflected in the optical density (OD) measurement at 540 nm with a reference absorption of 720 nm.
All the compounds were tested for their cytotoxic activity against blank and control samples in the human epidermal keratinocyte line (HaCaT), at the concentration of 100 μΜ, and the results are presented in Table 4.
This protocol was used for the evaluation of cell viability and all the cell lines. It must be noted that this assay describes the count of cells that remain alive after the treatment. For the experimental procedure a standard solution of MTT 1mg/mL in PBS was prepared which after filtration ([…] filter (Millipore, Carrigtwohill, Ireland)) was stored in the dark (4–8 °C) until use. In a 96-well plate, HaCaT, A549 and A375 cells were seeded in a number of 30 × 10^4 cells/well for each evaluation series respectively. The cells were incubated (37 °C, 5% CO2) for 24 h, followed by the addition of the tested analogues (100 μM, diluted in DMEM) and another 24-h incubation. Next, appropriate amount of MTT was added in the tested wells and the plate returned to the incubator for the next 4 h for the formation of the formazan crystals. The formazan crystals were then redissolved by adding DMSO (100 μL) and stirring lightly for 40 min, after which the absorbance was measured in a plate reader at 540 nm with a reference absorbance of 720 nm.
All samples were tested in triplicate, against a control (only cells), blank (no cells), and positive control (100 μM standard silibinin solution was used as a “cell-killing” standard).
(Tetrazolium assays rely on reduction of a dye to a coloured formazan, in cell work by metabolically active cells.)

For data set [3], the target named is T1, human serum albumin (HSA) (Homo sapiens, UniProt P02768).
T1 construct: purchased CHIRAL PAK
The experiment in a line: HSA chromatography and estimated plasma protein binding. The class given is in vitro ADME. The conditions noted are these: for fraction unbound: human, immobilized human serum albumin (HSA) column, Equation (2) from logk10, pH 7.00, read-out: %PPB estimated plasma protein binding (converted); for logk10 (HSA retention factor): pH 7.00, 10% acetonitrile. As for the experimental part: The novel coumarin derivatives were also studied using the immobilized protein column HSA. An HSA chromatographic column provides estimates on the binding affinities of chemicals to human serum albumin, which is the most abundant plasma protein and is related to drug efficacy, drug—drug pharmacokinetic interactions, and drug safety. HSA binding can be considered to represent almost the total plasma protein binding of a drug.
Retention factors on the HSA stationary phase were measured using as eluent PBS at pH = 7.00 and a flow rate of 1 mL/min in the presence of 10% acetonitrile.
(2) % PPB=101∗10^logk10/1+10^logk10
The physicochemical and biomimetic properties of the new coumarin analogues were studied using liquid chromatography (HPLC) in 220–230 nm Two types of chromatographic columns were used: (i) immobilized artificial membrane (IAM) ([…].PC.DD.2, Regis Technologies) column and (ii) human serum albumin (HSA) (CHIRAL PAK) column.
The training set consisted of 25 neutral and slightly acidic compounds. Their IAM retention factors were measured at pH 7.40 on a IAM.PC.DD.2 column. The mobile phase consisted of acetonitrile solvent (CH3CN) in various concentrations (10%, 15%, 20%, 25%, 30%) and a flow rate of 3 mL/min was selected. Their HSA retention factors were measured at pH 7.00 on HSA column. The mobile phase consisted of acetonitrile solvent (CH3CN) in 10% concentration and a flow rate of 1 mL/min was selected.
The different pH values (7.00 for HSA and 7.40 for IAM) were measured with an electronic pH meter MP125 and were achieved by preparing suitable buffers of phosphates and chlorides (0.12 g KH2PO4, 0.72 g Na2HPO4·2H2O, 4.00 g NaCl and 0.10 g KCl). Sodium citrate solution was used to determine the dead time, which was deducted from the results at the end of measurements. The elution time of each coumarin analogue was measured at least three times. Retention times were converted into logk values, which represent the logarithm of the retention indexes, using Equation (8). (8) logk=log(tr−t0/t0) where tr is the retention time of the coumarin derivative and t0 is the dead time.

T1 sequence (P02768 25-609): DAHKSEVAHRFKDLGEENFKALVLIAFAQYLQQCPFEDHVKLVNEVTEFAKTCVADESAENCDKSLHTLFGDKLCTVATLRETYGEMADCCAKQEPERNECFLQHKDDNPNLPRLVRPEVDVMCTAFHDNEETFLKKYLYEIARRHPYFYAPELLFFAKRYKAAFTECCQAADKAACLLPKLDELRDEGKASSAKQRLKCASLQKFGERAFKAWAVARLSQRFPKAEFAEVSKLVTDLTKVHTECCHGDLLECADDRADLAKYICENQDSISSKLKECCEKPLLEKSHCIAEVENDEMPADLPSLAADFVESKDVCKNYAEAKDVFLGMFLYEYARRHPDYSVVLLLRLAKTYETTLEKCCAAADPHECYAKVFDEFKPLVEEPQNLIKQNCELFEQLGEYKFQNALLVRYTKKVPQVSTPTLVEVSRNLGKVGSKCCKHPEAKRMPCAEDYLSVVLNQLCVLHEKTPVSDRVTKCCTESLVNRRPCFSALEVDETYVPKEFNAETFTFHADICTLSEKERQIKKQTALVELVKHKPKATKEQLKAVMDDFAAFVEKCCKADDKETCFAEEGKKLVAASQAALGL

Take `CC(=O)Oc1ccc(-c2c(C)c3cc(Br)ccc3oc2=O)cc1OC(C)=O` [Compound 3m, 3-(4,5-diacetyloxyphenyl)-6-bromo-4-methyl-chromen-2-one]: the “ABTS^•+ % (100 μΜ)” value in data set [1] is recorded as “no”. For the same compound, the viability at 24 h, 100 μM in data set [2] was found to be 100%. Further, in data set [3], the fraction unbound was 0.105 and the “logk10 (HSA retention factor)” value was 0.89.

Turning to `Cc1c(-c2ccc(O)cc2)c(=O)oc2ccc(Cl)cc12` [Compound 4j, 6-chloro-3-(4-hydroxyphenyl)-4-methyl-chromen-2-one], in data set [1], the “ABTS^•+ % (100 μΜ)” value is reported as “no”. In data set [2], this compound returned a viability at 24 h, 100 μM of 73%. In addition, in data set [3], the fraction unbound was 0.196 and the “logk10 (HSA retention factor)” value is recorded as 0.59.

Turning to `CC(=O)Oc1ccc(-c2c(C)c3cc(Cl)ccc3oc2=O)cc1` [Compound 3j, 3-(4-acetyloxyphenyl)-6-chloro-4-methyl-chromen-2-one], the “ABTS^•+ % (100 μΜ)” value in data set [1] is given as “no”. In addition, the viability at 24 h, 100 μM in data set [2] worked out at 90.5%. Besides, in data set [3], the fraction unbound was 0.088 and the “logk10 (HSA retention factor)” value was 0.97.

On to `Cc1c(-c2ccc(O)cc2)c(=O)oc2ccc(Br)cc12` [Compound 4i, 6-bromo-3-(4-hydroxyphenyl)-4-methyl-chromen-2-one], for which, in data set [1], the “ABTS^•+ % (100 μΜ)” value was “no”. In data set [2], this compound registered a viability at 24 h, 100 μM of 100%. In data set [3], the fraction unbound is 0.043 and the “logk10 (HSA retention factor)” value is given as 1.26.

Consider `CC(=O)Oc1ccc(-c2c(C)c3cc(Br)ccc3oc2=O)cc1` [Compound 3i, 3-(4-acetyloxyphenyl)-6-bromo-4-methyl-chromen-2-one], for which the “ABTS^•+ % (100 μΜ)” value in data set [1] is listed as “no”. In data set [2], this compound showed a viability at 24 h, 100 μM of 100%. Also, in data set [3], the fraction unbound is 0.059 and the “logk10 (HSA retention factor)” value is listed as 1.14.

Take `CC(=O)Oc1cccc2oc(=O)c(-c3ccc(F)cc3)c(C)c12` [Compound 3f, 5-acetyloxy-3-(4-fluorophenyl)-4-methyl-chromen-2-one]: the “ABTS^•+ % (100 μΜ)” value in data set [1] is listed as “no”. In addition, the viability at 24 h, 100 μM in data set [2] was determined as 100%. In addition, in data set [3], the fraction unbound was 0.206 and the “logk10 (HSA retention factor)” value is listed as 0.57.

For `Cc1c(-c2ccc(F)cc2)c(=O)oc2cccc(O)c12` [Compound 4f, 3-(4-fluorophenyl)-5-hydroxy-4-methyl-chromen-2-one], in data set [1], the “ABTS^•+ % (100 μΜ)” value worked out at 64.2%. For the same compound, in data set [2], the viability at 24 h, 100 μM came to 100%. Further, in data set [3], the fraction unbound was 0.163 and the “logk10 (HSA retention factor)” value was 0.68.

On to `Cc1c(-c2ccccc2Cl)c(=O)oc2cccc(O)c12` [Compound 4a, 3-(2-chlorophenyl)-5-hydroxy-4-methyl-chromen-2-one], for which the “ABTS^•+ % (100 μΜ)” value in data set [1] was determined as 56.5%. The viability at 24 h, 100 μM in data set [2] came out at 100%. Further, in data set [3], the fraction unbound is 0.13 and the “logk10 (HSA retention factor)” value is given as 0.79.

With `CC(=O)Oc1ccc(-c2c(C)c3ccccc3oc2=O)cc1OC(C)=O` [Compound 3l, 3-(4,5-diacetyloxyphenyl)-4-methyl-chromen-2-one], the “ABTS^•+ % (100 μΜ)” value in data set [1] was determined as 2.8%. Also, the viability at 24 h, 100 μM in data set [2] worked out at 100%. Moreover, in data set [3], the fraction unbound is 0.401 and the “logk10 (HSA retention factor)” value is given as 0.16.

Consider `CC(=O)Oc1ccc(-c2c(C)c3cc(Cl)ccc3oc2=O)cc1OC(C)=O` [Compound 3n, 3-(4,5-diacetyloxyphenyl)-6-chloro-4-methyl-chromen-2-one], for which the “ABTS^•+ % (100 μΜ)” value in data set [1] was “no”. The viability at 24 h, 100 μM in data set [2] stood at 100%. Further, in data set [3], the fraction unbound is 0.145 and the “logk10 (HSA retention factor)” value is recorded as 0.74.

Take `CC(=O)Oc1ccc(-c2c(C)c3cc(Br)cc(Br)c3oc2=O)cc1OC(C)=O` [Compound 3o, 3-(4,5-diacetyloxyphenyl)-6,8-dibromo-4-methyl-chromen-2-one]: the “ABTS^•+ % (100 μΜ)” value in data set [1] is “no”. The compound further registered a viability at 24 h, 100 μM in data set [2] of 100%. In data set [3], the fraction unbound is 0.201 and the “logk10 (HSA retention factor)” value is reported as 0.58.

In the case of `CC(=O)Oc1cccc2oc(=O)c(-c3ccccc3F)c(C)c12` [Compound 3d, 5-acetyloxy-3-(2-fluorophenyl)-4-methyl-chromen-2-one], the “ABTS^•+ % (100 μΜ)” value in data set [1] is “no”. The compound further registered a viability at 24 h, 100 μM in data set [2] of 100%. For the same compound, in data set [3], the fraction unbound is 0.149 and the “logk10 (HSA retention factor)” value is reported as 0.73.

With `CC(=O)Oc1cccc2oc(=O)c(-c3cccc(Cl)c3)c(C)c12` [Compound 3b, 5-acetyloxy-3-(3-chlorophenyl)-4-methyl-chromen-2-one], the “ABTS^•+ % (100 μΜ)” value in data set [1] is given as 1.9%. This compound yielded a viability at 24 h, 100 μM in data set [2] of 100%. In addition, in data set [3], the fraction unbound was 0.128 and the “logk10 (HSA retention factor)” value is listed as 0.80.

Regarding `CC(=O)Oc1cccc2oc(=O)c(-c3ccccc3Cl)c(C)c12` [Compound 3a, 5-acetyloxy-3-(2-chlorophenyl)-4-methyl-chromen-2-one], the “ABTS^•+ % (100 μΜ)” value in data set [1] was “no”. Also, in data set [2], the viability at 24 h, 100 μM turned out to be 100%. Besides, in data set [3], the fraction unbound is 0.202 and the “logk10 (HSA retention factor)” value is recorded as 0.57.

For `CC(=O)Oc1cccc2oc(=O)c(-c3ccc(Cl)cc3)c(C)c12` [Compound 3c, 5-acetyloxy-3-(4-chlorophenyl)-4-methyl-chromen-2-one], the “ABTS^•+ % (100 μΜ)” value in data set [1] was 15.0%. In data set [2], this compound returned a viability at 24 h, 100 μM of 100%. Also, in data set [3], the fraction unbound is 0.091 and the “logk10 (HSA retention factor)” value is reported as 0.96.

As to `CC(=O)Oc1ccc(-c2c(C)c3cc(Br)cc(Br)c3oc2=O)cc1` [Compound 3k, 3-(4-acetyloxyphenyl)-6,8-dibromo-4-methyl-chromen-2-one], the “ABTS^•+ % (100 μΜ)” value in data set [1] is recorded as “no”. Also, the viability at 24 h, 100 μM in data set [2] stood at 100%. Further, in data set [3], the fraction unbound was 0.013 and the “logk10 (HSA retention factor)” value is recorded as 1.63.

As to `Cc1c(-c2cccc(F)c2)c(=O)oc2cccc(O)c12` [Compound 4e, 3-(3-fluorophenyl)-5-hydroxy-4-methyl-chromen-2-one], the “ABTS^•+ % (100 μΜ)” value in data set [1] amounted to 69.2%. The same compound yielded a viability at 24 h, 100 μM in data set [2] of 92.4%. For the same compound, in data set [3], the fraction unbound is 0.034 and the “logk10 (HSA retention factor)” value is reported as 1.34.

In the case of `Cc1c(-c2ccc(O)cc2)c(=O)oc2c(Br)cc(Br)cc12` [Compound 4k, 6,8-dibromo-3-(4-hydroxyphenyl)-4-methyl-chromen-2-one], the “ABTS^•+ % (100 μΜ)” value in data set [1] was 27.8%. The compound also returned a viability at 24 h, 100 μM in data set [2] of 100%.

The term viability denotes a read-out of living cells in per cent, often relative to untreated cells.
